One data set concerns T. vaginalis PNP. As to the kind of experiment: Substrate cleavage by wild-type Tv-PNP (HPLC). Conditions: for rate of enzymatic cleavage by T. vaginalis PNP: 100 micromolar substrate, HPLC separation of base from nucleoside; for activity of Tv-PNP as compared to wild-type E. coli PNP: summary of Table 1. The format is biochemical, Trichomonas vaginalis. The protocol: (§1) The method quantitatively measures the cleavage of substrates in vitro. The purine analog nucleosides (0.1 mM in 500 μl of 100 mM HEPES, pH 7.4, 50 mM potassium phosphate) are combined with 100 μg/ml Tv-PNP or wild-type E. coli PNP. The reaction mixtures are incubated at 25° C. for 1 hour, and the reactions stopped by boiling each sample for 2 minutes. Protein concentration and time of assay are varied depending on activity of enzyme for a particular substrate. Each sample is analyzed by reverse phase HPLC to measure conversion from substrate to product. The nucleoside and purine analogs are eluted from a Spherisorb ODSI (5 μm) column (Keystone Scientific, Inc., State College, Pa.) with a solvent containing 50 mM ammonium dihydrogen phosphate (95%) and acetonitrile (5%). Products are detected by absorbance at 254 nm, and are identified by comparing their retention times and absorption spectra with authentic control samples.
Numerous compounds are tested for efficiency as substrate for Tv-PNP in parallel comparison with E. coli PNP. The compounds include various analogs of adenosine, of inosine, of MeP-dR, and of fluoro- or chloro-substituted adenosine. The enzymes are incubated with 100 micromolar of each compound listed in the table and the rate of enzymatic cleavage is determined by HPLC separation of the base from the nucleoside. […] It is appreciated that the greater biological activity of the Tv-PNP enzyme allows for greater activity in impairing abnormal cell growth when the Tv-PNP is used for treatment of pathological conditions using F-araA as a prodrug substrate.

A further data set concerns the target E. coli PNP (Escherichia coli, UniProt P0ABP8). As to the kind of experiment: Substrate cleavage by wild-type E. coli PNP (HPLC). The format is biochemical. Conditions: 100 micromolar substrate, HPLC separation of base from nucleoside. On the procedure:
as §1
Numerous compounds are tested for efficiency as substrate for Tv-PNP in parallel comparison with E. coli PNP. […] The enzymes are incubated with 100 micromolar of each compound listed in the table and the rate of enzymatic cleavage is determined by HPLC separation of the base from the nucleoside.

Data set [1] is described as follows: Tolerated dose of MeP-dR in mice. The format is in vivo. The source says:
The formula of Freidenreich et al., Cancer Chemother. Rep., 50:219-244, (1966) is optionally used to determine the maximum tolerated dose of substrate for a human subject. […] This amount or slightly less is expected to maximize tumor cell killing in humans without killing the subject thereby generating a favorable efficacy to safety profile. This standard of effectiveness is accepted in the field of cancer therapy. More preferably, a drug levels administered range from about 10% to 1% of the maximum tolerated dosage (for example, 7.5 mg/m^2-0.75 mg/m^2). It is understood that modes of administration that permit the substrate to remain localized at or near the site of the tumor will be effective at lower doses than systemically administered substrates.

Data set [2] in a line: Cleavage of MeP-dR by PNPs of various origins (HPLC). Conditions: 100 μM MeP-dR, enzymes of various purities. The format is biochemical.
A short description of data set [3]: Cleavage of F-araA by PNPs of various origins (HPLC). Conditions: for F-araA rate of cleavage: 100 μM F-araA, enzymes of various purities. The format is biochemical.
[4] abbreviates: equimolar quantities of substrate.

Like-named read-outs stand apart in the source and are kept apart here.

Sequence of E. coli PNP (P0ABP8 whole entry): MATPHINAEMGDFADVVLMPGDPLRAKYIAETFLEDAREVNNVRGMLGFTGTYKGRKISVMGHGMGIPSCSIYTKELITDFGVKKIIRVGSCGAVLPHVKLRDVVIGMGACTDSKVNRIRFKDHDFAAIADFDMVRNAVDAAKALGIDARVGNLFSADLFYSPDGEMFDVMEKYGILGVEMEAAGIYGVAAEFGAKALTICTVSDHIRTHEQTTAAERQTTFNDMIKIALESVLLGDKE

With `Cc1ncnc2c1ncn2[C@H]1C[C@H](O)[C@@H](CO)O1` [9-(2-deoxy-β-D-ribofuranosyl]-6-methylpurine], the “rate of enzymatic cleavage by T. vaginalis PNP” value (shortened to “rate … by T. vaginalis PNP”) in the data set on T. vaginalis PNP is 484,000 nanomoles per milligrams per hour. For the same molecule, the “rate of enzymatic cleavage by E. coli PNP” value (“rate … by E. coli PNP” for short) on E. coli PNP was 528,000 nanomoles per milligrams per hour. Moreover, the toxicity entry in data set [1] (mice, systemic, 25 mg per kg per day for 9 days (9 doses total)) is “some toxicity but no lethality”. In data set [1] (mouse, in vivo, 25 mg/kg), the “human dosage (maximum tolerated dose) by formula of Freidenreich et al.” value stood at 75 mg/m^2.
As to `Cc1ncnc2c1ncn2[C@H]1C[C@H](O)[C@@H]([C@H](C)O)O1` [9-[5-methyl-(talo)-2-deoxy-β-D-ribofuranosyl]-6-methylpurine], in the data set with T. vaginalis PNP, the “rate … by T. vaginalis PNP” value was 103,000 nanomoles per milligrams per hour and the “activity of Tv-PNP as compared to wild-type E. coli PNP” value was “more activity”. Besides, the “rate … by E. coli PNP” value at E. coli PNP is 3,600 nanomoles per milligrams per hour.
`Cc1ncnc2c1ncn2[C@@H]1O[C@H](CO)[C@@H](O)[C@@H]1O` [9-[β-D-arabinofuranosyl]-6-methylpurine]: in the data set with T. vaginalis PNP, the “rate … by T. vaginalis PNP” value is given as 570 nanomoles per milligrams per hour. Further, the “rate … by E. coli PNP” value at E. coli PNP is 14 nanomoles per milligrams per hour.
Turning to `Nc1nc2ncn([C@@H]3O[C@H](CO)[C@@H](O)[C@H]3O)c2c(=S)[nH]1` [7-β-D-ribosyl-6-thioguanine], in the data set with T. vaginalis PNP, the “rate … by T. vaginalis PNP” value is recorded as 435 nanomoles per milligrams per hour. Also, on E. coli PNP, the “rate … by E. coli PNP” value is listed as 66 nanomoles per milligrams per hour.
On to `OC[C@H]1O[C@@H](n2cnc3c(O)ncnc32)[C@H](O)[C@@H]1O` [Inosine, reference compound], for which the “rate … by T. vaginalis PNP” value in the data set on T. vaginalis PNP is 154,000 nanomoles per milligrams per hour. Besides, the “rate … by E. coli PNP” value on E. coli PNP is on record as 342,000 nanomoles per milligrams per hour.
For `Cc1ncnc2c1ncn2[C@@H]1O[C@@H](CO)[C@@H](O)[C@H]1O` [9-α-L-lyxofuranosyl-6-methylpurine], in that order: 10,000 nanomoles per milligrams per hour and 320 nanomoles per milligrams per hour.
`Cc1ncnc2c1ncn2[C@@H]1O[C@H](CO)[C@@H](O)[C@H]1O` [9-β-D-ribofuranosyl-6-methylpurine]: the “rate … by T. vaginalis PNP” value in the data set on T. vaginalis PNP is reported as 155,000 nanomoles per milligrams per hour. At E. coli PNP, the “rate … by E. coli PNP” value is given as 96,000 nanomoles per milligrams per hour.
For the molecule `Nc1nc(F)nc2c1ncn2[C@H]1C[C@H](O)[C@@H](CO)O1` [2-F-2′-deoxyadenosine (F-dAdo), 2-fluoro-2′-deoxyadenosine], in the data set on T. vaginalis PNP, the “rate … by T. vaginalis PNP” value is 400,000 nanomoles per milligrams per hour. The “rate … by E. coli PNP” value on E. coli PNP was 435,000 nanomoles per milligrams per hour.
On to `Nc1nc(F)nc2c1ncn2[C@@H]1O[C@H](CO)[C@@H](O)[C@H]1O` [2-F-adenosine], for which the “rate … by T. vaginalis PNP” value with T. vaginalis PNP is given as 185,000 nanomoles per milligrams per hour. For the same molecule, at E. coli PNP, the “rate … by E. coli PNP” value is recorded as 215,000 nanomoles per milligrams per hour.
As for `C[C@H]1O[C@@H](n2cnc3c(N)nc(F)nc32)[C@H](O)[C@@H]1O` [2-F-5′-deoxy-adenosine, 2-fluoro-5′-deoxyadenosine], in the data set on T. vaginalis PNP, the “rate … by T. vaginalis PNP” value is 50,000 nanomoles per milligrams per hour and the “activity of Tv-PNP as compared to wild-type E. coli PNP” value is recorded as “more activity”. Also, the “rate … by E. coli PNP” value at E. coli PNP is given as 29,000 nanomoles per milligrams per hour.
Consider `NC(=O)[C@H]1O[C@@H](n2cnc3c(N)ncnc32)[C@H](O)[C@@H]1O` [5′-carboxamide of adenosine], for which the “rate … by T. vaginalis PNP” value in the data set with T. vaginalis PNP is given as 33 nanomoles per milligrams per hour. Also, at E. coli PNP, the “rate … by E. coli PNP” value is listed as <1 nanomoles per milligrams per hour.

B1: T. vaginalis PNP: wild-type Trichomonas vaginalis purine nucleoside phosphorylase, amino acid sequence SEQ ID NO: 5 (protein, listed as Trichomonas vaginalis)
chain: MATPHNSAQVGDFAETVLMCGDPLRAKLIAETYLENPKLVNNVRGIQGYTGTYKGKPISVMGHGMGLPSICIYAEELYSTYKVKTIIRVGTCGAIDMDIHTRDIVIFTSAGTNSKINRIRFMDHDYPATASFDVVCALVDAAKELNIPAKVGKGFSTDLFYNPQTELAQLMNKFHFLAVEMESAGLFPIADLYGARAGCICTVSDHILHHEETTAEERQNSFQNMMKIALEAAIKL
As to B1, in data set [2], the “MeP-dR rate of cleavage” value is reported as 536,000 nmoles/mg/hr. Besides, the “F-araA rate of cleavage” value in data set [3] is 30,000 nmoles/mg/hr. Further, the MeP-dR/F-araA cleavage ratio in data set [3] (setting [4]) is listed as 18.

B2: human PNP: human purine nucleoside phosphorylase (protein, UniProt P00491 1-289, looked up)
Purine nucleoside …: MENGYTYEDYKNTAEWLLSHTKHRPQVAIICGSGLGGLTDKLTQAQIFDYGEIPNFPRSTVPGHAGRLVFGFLNGRACVMMQGRFHMYEGYPLWKVTFPVRVFHLLGVDTLVVTNAAGGLNPKFEVGDIMLIRDHINLPGFSGQNPLRGPNDERFGDRFPAMSDAYDRTMRQRALSTWKQMGEQRELQEGTYVMVAGPSFETVAECRVLQKLGADAVGMSTVPEVIVARHCGLRVFGFSLITNKVIMDYESLEKANHEEVLAAGKQAAQKLEQFVSILMASIPLPDKAS
On to B2, for which the “MeP-dR rate of cleavage” value in data set [2] was determined as 35 nmol/mg/h. Also, the “F-araA rate of cleavage” value in data set [3] is less than 1 nmol/mg/h. The MeP-dR/F-araA cleavage ratio in data set [3] (setting [4]) is listed as greater than 35.

B3: E. coli PNP: wild-type E. coli purine nucleoside phosphorylase (protein, UniProt P0ABP8 2-239, looked up)
Purine nucleoside …: ATPHINAEMGDFADVVLMPGDPLRAKYIAETFLEDAREVNNVRGMLGFTGTYKGRKISVMGHGMGIPSCSIYTKELITDFGVKKIIRVGSCGAVLPHVKLRDVVIGMGACTDSKVNRIRFKDHDFAAIADFDMVRNAVDAAKALGIDARVGNLFSADLFYSPDGEMFDVMEKYGILGVEMEAAGIYGVAAEFGAKALTICTVSDHIRTHEQTTAAERQTTFNDMIKIALESVLLGDKE
Take B3: the “MeP-dR rate of cleavage” value in data set [2] is on record as 528,000 nmoles/mg/hr. In data set [3], the MeP-dR/F-araA cleavage ratio came out at 422 and the “F-araA rate of cleavage” value was 1,250 nmoles/mg/hr.

B4: E. Coli PNP mutant M65V (protein, UniProt P0ABP8 2-239, looked up, variant M65V)
Purine nucleoside …: ATPHINAEMGDFADVVLMPGDPLRAKYIAETFLEDAREVNNVRGMLGFTGTYKGRKISVMGHGVGIPSCSIYTKELITDFGVKKIIRVGSCGAVLPHVKLRDVVIGMGACTDSKVNRIRFKDHDFAAIADFDMVRNAVDAAKALGIDARVGNLFSADLFYSPDGEMFDVMEKYGILGVEMEAAGIYGVAAEFGAKALTICTVSDHIRTHEQTTAAERQTTFNDMIKIALESVLLGDKE
Consider B4, for which the “MeP-dR rate of cleavage” value in data set [2] turned out to be 1823 nmol/mg/h. Moreover, the MeP-dR/F-araA cleavage ratio turned out to be 469±52 in data set [3], 469 in data set [3] (setting [4]) and 593 in data set [3] (purified enzyme). For the same molecule, the “F-araA rate of cleavage” value in data set [3] was determined as 3.9 nmol/mg/h.

B5: Salmonella typhimurium PNP: purine nucleoside phosphorylase of Salmonella typhimurium (protein, UniProt Q8ZJV7 1-239, looked up)
Purine nucleoside …: MATPHINAEMGDFADVVLMPGDPLRAKHIAETFLENVREVNNVRGMLGFTGTYKGRKISVMGHGMGIPSCSIYTKELITDFGVKKIIRVGSCGAVRMDVKLRDVVIGMGACTDSKVNRIRFKDHDFAAIADFDMVRNAVDAAKALGVDARVGNLFSADLFYSPDGEMFDVMEKYGVLGVEMEAAGIYGVAAEFGAKALTICTVSDHIRTHEQTTAAERQTTFNDMIKIALESVLLGDKE
With B5, the “MeP-dR rate of cleavage” value in data set [2] is given as 9,150 nmoles/mg/hr. For the same molecule, the “F-araA rate of cleavage” value in data set [3] stood at 20 nmol/mg/h. Moreover, the MeP-dR/F-araA cleavage ratio in data set [3] (setting [4]) was found to be 458.

Source of the values: patent US8628767B2, “Purine nucleoside phosphorylase as enzymatic activator of nucleoside prodrugs” (priority 2008, dated 2014).
